Data taken from patent US9326511B2, “Methods of inhibiting microbial biofilms” (priority 2008, dated 2016).
Where two headings read alike, the source gives them in different places.

Experiments:
[1] = Chemical stability, qualitative stress tests (HPLC, LC-MS); assay type: physicochemical; conditions: solid, aqueous solution, PBS, 7 days each at 50, 70 and 90° C.
Description: The following HPLC methodology was established for the analysis of the exemplary compounds of the invention.
The method involves detection by UV at a wavelength of 420 nm, which is very specific for these compounds. In order to monitor impurities not related to the porphyrin structure (and therefore not absorbing at 420 nm) UV spectra of the whole chromatograms were also recorded between 200 nm and 700 nm by DAD (diode array detector) in certain experiments. • Column: Zorbax Phenyl, 250×4.6 mm, 5 µm • Eluent A: 1.5 g sodium dodecylsulfate+1 mL formic acid in 1000 mL water • Eluent B: 1.5 g sodium dodecylsulfate+1 mL formic acid in 200 mL water+800 mL tetrahydrofurane • Gradient:
• Flow rate: 0.4 mL/min • Detection: 420 nm • Column temperature: 25° C. • Injection volume: 10 μl • Solutions: Porphyrin derivatives were dissolved in eluent A to give a final concentration of approximately 0.3 mg/ml.
Qualitative stress tests were undertaken on the exemplary compounds of the invention. Analysis was undertaken by HPLC & LC-MS. The compounds were stress tested in solid form, in an aqueous solution and a solution made up in phosphate-buffered saline buffer. The samples were initially incubated for 7 days at 50° C. and a sample removed for testing. The samples were then incubated for a further 7 days at 70° C., samples removed as before and the samples incubated further for 7 days at 90° C. HPLC analysis of freshly prepared solutions was undertaken and compared to the samples after 7, 14 and 21 days incubation. A visual comparison of the chromatograms was then undertaken and the content of the main products and by-products as area percentage values determined (see FIG. 4).

S. aureus SH1000 = test: Planktonic MIC by broth microdilution (BSAC guidelines); assay type: cell-based, Staphylococcus aureus
Description: (§1) Methods: MICs were determined for planktonic cultures by broth microdilution according to British Society for Antimicrobial Chemotherapy (BSAC) guidelines. Biofilm MICs (bMIC) and minimum biofilm eradication concentrations (MBECs) were determined using the Calgary biofilm device. The effect of Compound 10 on the viability of cold culture cells was determined by growing S. aureus SH1000 to early exponential phase at 37° C. and resuspending the cells in pre-chilled media, where they were maintained in the presence and absence of Compound 10 and control agents. The effect of Compound 10 on slow growing cells expressing the stringent response was also determined by growing cultures to early log phase and the stringent response induced by the addition of the isoleucyl-tRNA synthetase inhibitor mupirocin. Compound 10 and control agents were then added and samples recovered for viable cell determinations.

[2] = test system: S. aureus SH1000 biofilms; test: Biofilm MIC and minimum biofilm eradication concentration, Calgary Biofilm Device; assay type: cell-based, Staphylococcus aureus; conditions: Staphylococcus aureus, SH1000BIOFILMS, biofilm MIC, read-out: bMIC
Description: as §1
Biofilm MICs and minimum biofilm eradication concentrations (MBEC) were determined in the Calgary Biofilm Device (Nunc Inc, Roskilde, Denmark) as described by Miller et al., 2005. This involves the following steps. Aliquots (200 μL) of exponential phase cultures of strain SH1000 were added to each well of a 96-well microtitre tray. The lid assembly, which has 96 polystyrene pegs corresponding to each well, was then replaced and the system incubated for 24 hours at 37° C. on a rocking platform. Following this a biofilm of approximately 10^7 cfu matured on each peg. The lid was then washed twice in phosphate-buffered saline (PBS) to remove residual planktonic growth and then placed into a microtitre tray with fresh media containing doubling dilutions of the test antibiotic. The system was then incubated for 24 hours at 37° C. on a rocking platform. The MIC was defined as the lowest concentration of antibiotic completely inhibiting visible growth after this incubation. After the MIC was recorded, the lid assembly was again washed twice in PBS to remove planktonic cells and remaining antibiotic and then placed into fresh drug-free media. The system was incubated for a further 24 hours and the MBEC was defined as the lowest concentration of antibiotic completely inhibiting the re-establishment of planktonic growth.

[3] = test system: S. aureus SH1000 stationary phase cultures; test: Time-kill against stationary phase cultures; assay type: cell-based, Staphylococcus aureus; conditions: early, mid and late stationary phase (24, 48, 72 hours), 10^8 bacteria/mL in spent medium
Description: The anti-staphylococcal activities of Compound 10, Compound 12 and a range of comparator agents against stationary phase cultures of Staphylococcus aureus were studied using standard time-kill methodology (Oliva et al., 2003, Hobbs et al., 2008). A growth curve was constructed to identify when SH1000 cultures enter and leave stationary phase. 50 mL of Mueller-Hinton broth (MHB) was inoculated with 500 μL of Staphylococcus aureus SH1000 overnight culture and was maintained at 37° C. with agitation for 8 days. The culture turbidity at OD600 nm was measured at regular intervals using a Jenway 6300 spectrophotometer with a 1 cm light path (Jenway, Essex, UK). Staphylococcus aureus SH1000 cultures were grown to early, mid and late stationary phase at 37° C. by incubation for 24, 48 and 72 hours respectively. Cultures were centrifuged, the supernatant was removed, and then a portion of the cell pellet was resuspended in the counterpart supernatant to an OD600 nm of 0.2 (10^8 bacteria/mL). A time-kill assay was then performed on these stationary phase suspensions to study the effects of antimicrobial agents on bacterial cell viability. An untreated culture served as the negative control. The experiments were undertaken in triplicate. […]

[4] = 24 h, S. aureus SH1000, Calgary Biofilm Device, 24 hours (Table 6)

| Compound | Chemical stability under stress [1] | MIC (S. aureus SH1000; Staphylococcus aureus, planktonic S. aureus SH1000 (Table 6), read-out: MIC) | MIC [2, 4] | bactericidal activity in time-kill (in words) [3] | MIC (S. aureus SH1000; Staphylococcus aureus, planktonic S. aureus SH1000 (Table 5), read-out: MIC) | MIC (S. aureus SH1000; planktonic S. aureus SH1000 (Table 6)) | MIC ([2]; S. aureus SH1000, Calgary device (Example H)) |
| --- | --- | --- | --- | --- | --- | --- | --- |
| C[N+](C)(C)CCCOc1cccc(-c2c3nc(cc4ccc([nH]4)c(-c4cccc(OCCC[N+](C)(C)C)c4)c4nc(cc5ccc2[nH]5)C=C4)C=C3)c1.[Cl-].[Cl-] [Compound 12, 5,15-bis-[3-(3-Trimethylammonio-propyloxy)-phenyl]-porphyrin dichloride] | good stability | 1 µg/mL | 1 µg/mL | retained potent bactericidal activity |  |  |  |
| C[N+](C)(C)CCCOc1ccc(-c2c3nc(cc4ccc([nH]4)c(-c4ccc(OCCC[N+](C)(C)C)cc4)c4nc(cc5ccc2[nH]5)C=C4)C=C3)cc1.[Cl-].[Cl-] [Compound 10, 5,15-bis-[4-(3-Trimethylammonio-propyloxy)-phenyl]-porphyrin dichloride] | good stability |  | 1 µg/mL | retained potent bactericidal activity | 1 µg/mL | 1 µg/mL | 1 µg/mL |
